The values below come from the supplement of paper PMC10290057.

The subject of assay [1] is HCT116. Put plainly: efficacy (fitted maximal change in viability relative to DMSO control); higher = less cytotoxic (negative = loss of viability). The settings on record: 48 h.
Assay [2] has as its system HCT116. Briefly: AC50 cell viability (CellTiter-Glo); higher = less potent. The following applies: 48 h. (Cellular ATP, detected with luciferase, serves as a proxy for viable cell number.)
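Wherever AC50 cell viability (CellTiter-Glo) is given: HCT116 colorectal carcinoma cells screened at five concentrations per compound, luminescent viability scaled between DMSO wells and empty wells on each plate, curves fitted per compound.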
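Wherever efficacy (fitted maximal change in viability relative to DMSO control) is given: Luminescence-based viability readout, five doses per compound, normalized against on-plate DMSO and empty-well controls, followed by dose-response curve fitting for every drug.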

Consider `c1cc(N[C@@H]2CCNC2)nc(-c2cnc3ccc(-c4cn[nH]c4)cn23)c1`, for which the efficacy in assay [1] was -59.7%. This compound returned an AC50 cell viability in assay [2] of 7.42 µM.
As to `CC(=O)NCC(=O)N1[C@@H]2CC[C@H]1c1ccc(Nc3ncc(C(F)(F)F)c(NC4CCC4)n3)cc12`, the efficacy in assay [1] was -73.5%. Also, the AC50 cell viability in assay [2] was determined as 1.48 µM.
In the case of `CC(C)(C)C[C@H]1N[C@@H](C(=O)N[C@H]2CC[C@H](O)CC2)[C@H](c2cccc(Cl)c2F)[C@@]12C(=O)Nc1cc(Cl)ccc12`, the efficacy in assay [1] was -91.1%. The compound also showed an AC50 cell viability in assay [2] of 4.17 µM.
`CC(C)c1ccc(Cn2ccc3c4c(N)nc(NC5CC5)nc4ccc32)cc1`: the efficacy in assay [1] is -102%. In assay [2], this compound came in with an AC50 cell viability of 0.332 µM.
As for `CC(C)CC(=O)Nc1n[nH]c2c1CN(C(=O)C1CCN(C)CC1)C2(C)C`, the efficacy in assay [1] was -68.7%. In assay [2], this compound had an AC50 cell viability of 0.186 µM.
In the case of `CC(C)Oc1ccc(C(=O)N[C@H](CNC(=O)CN(C)C)Cc2ccc(-c3cn4cccc([C@H](C)O)c4n3)cc2)cc1Cl`, in assay [1], the efficacy was -127%. The compound further displayed an AC50 cell viability in assay [2] of 4.17 µM.
With `Cc1ccc(C(N)=O)cc1Nc1nccc(-c2cn(C(C)C)c3cnccc23)n1`, the efficacy in assay [1] is -69.4%. This compound showed an AC50 cell viability in assay [2] of 2.09 µM.
On the same counts, the results for `Cc1cc(I)ccc1Nc1c(C(=O)NOCC2CC2)cc(F)c(F)c1F` are -95.1% and 4.68 µM.
Consider `Cc1ccc([S+](=O)([O-])Nc2cc(Cl)ccc2C(=O)Nc2nc(-c3ccccc3)cs2)cc1`, for which the efficacy in assay [1] is -82.5%. The same compound registered an AC50 cell viability in assay [2] of 2.63 µM.
With `Cc1ccc(NC(=O)c2ccc3c(c2)OCCO3)cc1NC(=O)c1ccc2nc(OCCN3CCCC3)ccc2c1`, the efficacy in assay [1] was -69.9%. Besides, the AC50 cell viability in assay [2] worked out at 0.0407 µM.
As for `Cc1n[nH]c2ccc(-c3cncc(OC[C@@H](N)Cc4c[nH]c5ccccc45)c3)cc12`, the efficacy in assay [1] is -80.2%. In assay [2], the AC50 cell viability is 0.417 µM.
Regarding `CCc1cccc(CC)c1NC(=O)N1Cc2[nH]nc(NC(=O)c3ccc(N4CCN(C)CC4)cc3)c2C1`, in assay [1], the efficacy is -88.9%. In assay [2], this compound gave an AC50 cell viability of 11.8 µM.
In the case of `CCCC(CCC)C(=O)NC/1=N/C(=O)N(/C=C1)[C@@H]2O[C@H](CO)[C@@H](O)C2(F)F`, the efficacy in assay [1] is -48.1%. In assay [2], this compound returned an AC50 cell viability of 2.63 µM.
As for `CCCCOc1c(C(=O)c2c(F)cc(C)cc2F)cnc2[nH]ncc12`, the efficacy in assay [1] was -75.8%. In assay [2], this compound displayed an AC50 cell viability of 1.32 µM.
Regarding `CCN(CC)CCCCNc1ncc2c(n1)N(C)C(=O)N(c1c(Cl)c(OC)cc(OC)c1Cl)C2`, the efficacy in assay [1] was -80.5%. The AC50 cell viability in assay [2] is 11.8 µM.
On the same counts, the results for `CCNC(=O)c1cc2c(-c3cc(OCCN4CCCC4)c(Cl)cc3Cl)nc(N)nc2s1` are -57.9% and 0.456 µM.
For the compound `CCNC(=O)C[C@H]1/N=C(/C2=CC=C(Cl)C=C2)C3=CC(=CC=C3[N]4C(=NN=C14)C)OC`, the efficacy in assay [1] was -37.7%. In assay [2], this compound had an AC50 cell viability of 14.8 µM.
Turning to `CN(C)c1ccc(-c2nc3c(N4CCN(CC(=O)Nc5nccs5)CC4)c(Cl)cnc3[nH]2)cc1`, the efficacy in assay [1] was -34.1%. In addition, the AC50 cell viability in assay [2] stood at 0.723 µM.
Regarding `CN(C)CC(=O)N1CCC(CC1)C2=CC=C(NC(=O)C3=NC(=C[NH]3)C#N)C(=C2)\C4=C\CCCC4`, the efficacy in assay [1] was -80.1%. Also, in assay [2], the AC50 cell viability turned out to be 16.6 µM.
Take `CN(C)Cc1cccc(N/C(=C2\C(=O)Nc3cc(C(=O)N(C)C)ccc32)c2ccccc2)c1`: the efficacy in assay [1] is -69.8%. In addition, the AC50 cell viability in assay [2] was determined as 13.2 µM.
For the compound `Cc1nn(Cc2ccccc2Cl)c(C)c1CN(C)CC(O)COc1ccc(Cl)cc1` (stereo not given), the efficacy in assay [1] was -92.3%. Moreover, the AC50 cell viability in assay [2] amounted to 18.6 µM.
On to `CN1CCN(c2cccc(Nc3nc4c(-c5ccc([S+](C)(=O)[O-])cc5)cccn4n3)c2)CC1`, for which the efficacy in assay [1] is -121%. Moreover, in assay [2], the AC50 cell viability stood at 16.6 µM.
On the same counts, the results for `Cc1cc(Nc2cc(N3CCN(C)CC3)nc(/C=C/c3ccccc3)n2)n[nH]1` are -99.9% and 5.9 µM.
As for `CNC(=O)c1ccccc1Nc1nc(Nc2ccc3c(c2OC)CCC[C@@H](N2CCN(CCO)CC2)C3)ncc1Cl`, the efficacy in assay [1] was -110%. The compound also came in with an AC50 cell viability in assay [2] of 4.17 µM.
On the same counts, the results for `CNC(=O)Cn1cc(-c2ccc3c(c2)C(F)CC32NC(=O)N(CC(=O)N(Cc3ccc(F)cc3)C(C)C(F)(F)F)C2=O)cn1` (stereo not given) are -51.2% and 0.934 µM.
On to `CNC(=O)Cn1cc(-c2ccc3c(c2)C(F)CC32NC(=O)N(CC(=O)N(Cc3ccc(F)cc3)[C@@H](C)C(F)(F)F)C2=O)cn1` (stereo not given in full), for which, in assay [1], the efficacy is -47.8%. This compound also registered an AC50 cell viability in assay [2] of 0.742 µM.
`CNc1nc(-c2ccc3c(N)n[nH]c3c2)cc(N2C[C@@H](C(=O)NC3CCCCC3)CC[C@H]2C)n1`: in assay [1], the efficacy was -110%. In assay [2], the AC50 cell viability is 18.6 µM.
On to `CNCc1ccc(C)c(NC(=O)c2ccc(Nc3nc(-c4ccccc4)c4ccccc4n3)cc2)c1`, for which, in assay [1], the efficacy is -94.8%. This compound gave an AC50 cell viability in assay [2] of 18.6 µM.
On the same counts, the results for `CNCCn1c(=O)c2cc(OC)c(OC)cc2c2cnc3cc4c(cc3c21)OCO4` are -80.9% and 0.0303 µM.
`COc1cc(C)c(Sc2cnc(NC(=O)c3ccc(CNC(C)C(C)(C)C)cc3)s2)cc1C(=O)N1CCN(C(C)=O)CC1` (stereo not given): the efficacy in assay [1] is -110%. The compound further gave an AC50 cell viability in assay [2] of 11.8 µM.
On the same counts, the results for `COC1=C(NC2=NC=C(Cl)C(=N2)N[C@@H]3[C@H]\4C[C@@H](\C=C4)[C@H]3C(N)=O)C=CC5=C1CCC(CC5)N6CCOCC6` (stereo not given in full) are -74.2% and 4.17 µM.
Turning to `COc1cc(-c2cc(-c3ccc(N4CCNCC4)cc3)cnc2C)cc(OC)c1OC`, in assay [1], the efficacy is -57.2%. In assay [2], this compound came in with an AC50 cell viability of 9.34 µM.
In the case of `COc1cc2ncnc(-n3nc(-c4ccccn4)nc3N)c2cc1OC`, the efficacy in assay [1] is -47.9%. The compound further came in with an AC50 cell viability in assay [2] of 4.68 µM.
For `COc1cc2nc(-c3ccc(N4CCN(C)CC4)cc3)nc(NCCN3CCOCC3)c2cc1OC`, the efficacy in assay [1] was -87.2%. The same compound displayed an AC50 cell viability in assay [2] of 2.95 µM.
Take `COc1cc(N2CCC(N(C)C)CC2)ccc1Nc1ncc(Cl)c(Nc2ccccc2P(C)(C)=O)n1`: the efficacy in assay [1] is -87.7%. Moreover, in assay [2], the AC50 cell viability amounted to 0.742 µM.
On to `COc1ccc(-c2cc(C(O)C3CCCCN3)c3ccccc3n2)cc1` (stereo not given), for which, in assay [1], the efficacy was -90.9%. In assay [2], the AC50 cell viability stood at 4.68 µM.
On the same counts, the results for `COc1ccc(-c2cc3c(C)nc(N)nc3n([C@H]3CC[C@H](OCCO)CC3)c2=O)cn1` are -71.8% and 0.332 µM.
For the compound `COc1ccc(CCN(C)CCCOc2ccc([S+](=O)([O-])c3c(C(C)C)c4ccccc4n3C)cc2)cc1OC`, in assay [1], the efficacy is -91.8%. In assay [2], the AC50 cell viability turned out to be 8.33 µM.
As for `COc1ccc(Cl)c(Nc2ncnc3cc(OCC4CCN(C)CC4)c(OC)cc23)c1`, in assay [1], the efficacy is -93.6%. For the same compound, the AC50 cell viability in assay [2] amounted to 23.5 µM.
Regarding `COCCOc1ccc2c(c1)ncn2-c1ccc2cccc(N3CCC(N)CC3)c2n1`, the efficacy in assay [1] was -85.5%. In assay [2], this compound returned an AC50 cell viability of 2.95 µM.
Turning to `Cc1cc(OCCCc2c3n(c4c(-c5c(C)nn(C)c5C)c(Cl)ccc24)[C@H](C)CN(c2cn(C)c4ccc(C(=O)O)cc24)C3=O)cc(C)c1Cl`, in assay [1], the efficacy was -93.6%. This compound came in with an AC50 cell viability in assay [2] of 16.6 µM.
With `Cc1ccc(-c2ccc3c(ccc4sc5c(c43)NC[C@@H](C)NC5=O)n2)cn1`, the efficacy in assay [1] was -96.2%. This compound registered an AC50 cell viability in assay [2] of 20.9 µM.
On to `C[C@@]1(c2ncncc2F)NC(=O)c2cc(-c3cn[nH]c3)ccc21`, for which, in assay [1], the efficacy is -101%. The same compound returned an AC50 cell viability in assay [2] of 14.8 µM.
For `C[S+](=O)([O-])N1CCc2c(-c3cnc(N)nc3)nc(N3CCOCC3)nc21`, the efficacy in assay [1] was -56.8%. Further, the AC50 cell viability in assay [2] stood at 0.661 µM.
On the same counts, the results for `O=C(N[C@@H](c1ccccc1)[C@@H]1CCCCN1)c1cccc(C(F)(F)F)c1Cl` are -108% and 20.9 µM.
For the compound `O=C(Nc1ccccc1Br)N[C@@H]1CCN(c2ccc(C(F)(F)F)cn2)C1`, the efficacy in assay [1] is -39.8%. In addition, the AC50 cell viability in assay [2] turned out to be 16.6 µM.
Turning to `Fc1ccc(-c2csc3ncnc(NCc4ccc5c(c4)OCO5)c23)cc1`, the efficacy in assay [1] is -57.3%. The AC50 cell viability in assay [2] turned out to be 8.33 µM.
As for `N#Cc1cccc(-c2c[nH]c3ncnc(N4CCOCC4)c23)c1`, the efficacy in assay [1] is -40.9%. In assay [2], the AC50 cell viability was found to be 16.6 µM.
With `Nc1nc(Nc2ccc([S+](N)(=O)[O-])cc2)nn1C(=O)c1c(F)cccc1F`, the efficacy in assay [1] is -65.7%. The AC50 cell viability in assay [2] turned out to be 1.66 µM.
Take `NC\1=N\C(=O)N(\C=C1F)[C@H]2C[C@H](O)[C@@H](CO)O2`: the efficacy in assay [1] is -64%. For the same compound, the AC50 cell viability in assay [2] came to 0.105 µM.
For `N[S+](=O)([O-])c1ccc(Cc2c(-c3cccc(-c4ccccc4)c3)nn(-c3nc(C(=O)O)cs3)c2CC2CC2)cc1` the same measures were -43.2% and 14.8 µM.
Turning to `O=C(C1CC1)N1CC[C@@H](Cn2c(-c3ccc(-c4ccc5occc5c4)cc3)nc3cnccc32)C1`, in assay [1], the efficacy was -66.1%. The compound further had an AC50 cell viability in assay [2] of 23.5 µM.
On the same counts, the results for `O=C(NCCCNc1nc(Nc2cccc(CN3CCOCC3)c2)ncc1C1CC1)C1CCC1` are -96.5% and 16.6 µM.
In the case of `O=C(NCC(=O)N1CC[C@H](NC2CCC(O)(c3ccc(-c4ncccn4)cn3)CC2)C1)c1cccc(C(F)(F)F)c1` (stereo not given in full), the efficacy in assay [1] was -47%. Moreover, the AC50 cell viability in assay [2] was 5.9 µM.
In the case of `O=C1CSC(=O)N1C(CCc1ccncc1)COc1ccc(-c2cccc([N+](=O)[O-])c2)cc1` (stereo not given), the efficacy in assay [1] was -32.9%. The compound also registered an AC50 cell viability in assay [2] of 2.63 µM.
